Common to all, as to type: in vivo
The nature of series [1]: DHA level of red blood cells in rats given panthenol DHA via oral force-feeding. To be noted: 300 and 1000 mg/kg per day oral, 7 days (FIG. 1). On the procedure:
(§1) Incorporation of DHA in the plasma and red blood cells of rats receiving panthenol […] via oral route. The objective of this study was to assay total DHA in the blood (plasma and red blood cells) of rats given panthenol DHA via oral force-feeding for 7 days.
(§2) Three groups of 4 rats (2 male and 2 female) were used:
(§3) Group 1: control group (olive oil)
(§4) Group 2: panthenol DHA at 300 mg/kg per day.
(§5) Group 3: panthenol DHA at 1000 mg/kg per day.
(§6) The total lipids of the plasma (500 μL) and red blood cells were extracted with a hexane/isopropanol mixture (3:2, v/v) in an acid medium (3M HCl, 1 mL) in the presence of margaric acid as internal standard. The total lipids from the plasma and red blood cell were saponified (i mL 0.5M NaOH in methanol, 70° C., 30 minutes) then converted to methyl esters (1 mL, 14% BF) in methanol, 70° C., 15 minutes). The fatty acid methyl esters were extracted with pentane then analysed by gas phase chromatography. The chromatograph (Agilent Technologies 6890N) was equipped with a split injector heated to 250° C. (division ratio 1:10) and a capillary column (length 60 m, diameter 0.25 mm) with BPX70 stationary phase (70% cyanopropylpolyphenylene-siloxane; thickness 0.25 μm). The vector gas was helium. […]
(§7) The DHA was quantitated in relation to the internal standard (C17:0) added in known quantity to the sample before extraction of the total lipids. […]

A short description of series [2]: DHA plasma level in rats given panthenol DHA via oral force-feeding. To be noted: 300 and 1000 mg/kg per day oral, 7 days (FIG. 1). The protocol:
as §1, §2, §3, §4, §5, §6, §7

A short description of series [3]: DHA concentration in human red blood cells after oral panthenol DHA (clinical trial). As to conditions: irrespective of the dose (1, 2, 4 g/day), 28 days. The protocol:
Concentration of DHA in human red blood cells after absorption of panthenol DHA.
The objective of this clinical trial was to determine total DHA concentrations in the red blood cells of volunteers given a once daily oral dose of panthenol DHA for 28 days. Three doses of panthenol […] were tested in this trial: 1, 2 and 4 g/day. Twelve persons were included in this trial, 3 were given a placebo (without panthenol DHA) and 9 were given panthenol DHA.
Blood samples were taken before administering panthenol DHA (corresponding to the baseline) and thereafter at days 4, 7, 10 14, 15, 19, 22, 25 and 29 to determine the DHA concentrations in the red blood cells. Two blood samples of 4 mL each were taken in tubes containing EDTA. The tubes were centrifuged at 3000 g for 15 minutes at ambient temperature within 30 minutes after the taking of the sample. […]
The lipids were extracted from the red blood cell samples (≈500 mg) using a hexane/isopropanol mixture (3:2 v/v) in an acid medium in the presence of margaric acid as internal standard (100 μg). […] After extraction with pentane, the extracted fatty acid methyl esters were analysed by gas phase chromatography. […]
The DHA was quantitated relative to the internal standard (C17:0) added in known quantity to the sample before extraction of the total lipids. […]

A short description of series [4]: DHA level of red blood cells in dogs given nicotinol DHA via oral route. An excerpt:
(§8) Effect of nicotinol DHA on the fatty acid composition of plasma and red blood cells in dogs treated via oral route. The objective of this first study was to assay total DHA in the blood (plasma and red blood cells) of dogs given nicotinol DHA via oral route.
(§9) Two groups of 10 dogs were used:
(§10) Group 2: nicotinol DHA at 2 g per day.
(§11) All the animals were given either a placebo or nicotinol DHA at 2 g per day via oral route for 28 days. Blood samples were taken at D1 (control), D7, D14, D21 and D28.
(§12) The total lipids of the plasma (500 μL) and of the red blood cells (≈500 mg, the weighing of red blood cells is more accurate than measuring volume) were extracted with 4 mL of hexane/isopropanol mixture ([…]) in an acid medium (3M HCl, 500 μL) in the presence of margaric acid as internal standard (100 μg). After agitation and centrifugation (2000 g, 15 minutes, 10° C.) the organic phase was separated. A second extraction with 2 mL of the same solvent was performed under the same conditions. The organic phases were washed with 2 mL of saline water ([…]). The solvents were evaporated under a stream of nitrogen at 40° C.
(§13) The total lipids derived from the plasma and red blood cells were then saponified (1 mL of 0.5M NaOH in methanol, 70° C., 30 minutes) then converted to methyl eaters (1 mL, 14% BF3 in methanol, 70° C., 15 minutes). After hydrolysio (4 mL […]) they were extracted with 4 then 2 mL of pentane. The organic phases were washed with 2 mL of saline water (9% NaCl). The solvents were evaporated under a stream of nitrogen at 40° C. The methyl esters were re-dissolved in 200 μL hexane for the plasma and red blood cells. The extracted fatty acid methyl esters were analysed by gas phase chromatography. The chromatograph (Agilent Technologies 6890N) was equipped with a split injector heated to 260° C. (1:10 division ratio), capillary column (length 60 m, diameter 0.25 mm) with BPX70 stationary phase (70% cyanopropylpolyphenylene-siloxane; thickness 0.25 μm) and flame ionization detector heated to 260° C. (hydrogen: 40 mL/min, air: 450 mL/min). The vector gas was helium (constant flow rate 1.5 mL/min). The temperature of the column was initially 150° C. and brought at a temperature gradient of 1.3° C./min up to 220° C. then 40° C./min to reach 260° C. for 5 minutes. The retention times of standard methyl esters allowed identification of the extracted fatty acid methyl esters.
(§14) The DHA was quantitated relative to the internal standard (C17:0) added in known quantity to the sample before extraction of the total lipids. It is expressed in μg/mL for the plasma, in μg/g for the red blood cells. The values are given as a mean f standard deviation (in general n=10). The significant differences are shown by a Student's test with 5% threshold.

A short description of series [5]: DHA plasma level in dogs given nicotinol DHA via oral route.
Text: as §8, §9, §10, §11, §12, §13, §14

Where [6] appears, read: 2 g/D oral, significant at every treatment time vs control group.
[7] abbreviates: group 2, D −1 (start of the experiment, before treatment with 2 g/D oral).

Take `CC/C=C\C/C=C\C/C=C\C/C=C\C/C=C\C/C=C\CCC(=O)OCCCNC(=O)[C@@H](O)C(C)(C)CO` [panthenol DHA, panthenyl docosahexaenoate]: the “amount of DHA found in the red blood cells” value in series [1] (female rats) was “only increased with the higher dose”; in series [1] (male rats) it was “dependent on the dose”. The “amount of DHA found in the plasma” value in series [2] (female rats) is reported as “only increased with the higher dose”; in series [2] (male rats) it was “dependent on the dose”. Moreover, in series [3], the “DHA level in human red blood cells versus placebo” value was “increased compared with the placebo group”.

Consider `CC/C=C\C/C=C\C/C=C\C/C=C\C/C=C\C/C=C\CCC(=O)OCc1cccnc1` [nicotinol DHA], for which the “DHA level of red blood cells, mean” value came out at 4.7 µg/mL in series [4] (2 g/D oral, D 7); 7.1 µg/mL in series [4] (2 g/D oral, D 14); 8.3 µg/mL in series [4] (2 g/D oral, D 21); 8.7 µg/mL in series [4] (2 g/D oral, D 28); 1.7 µg/mL in series [4] (setting [7]). Moreover, in series [4] (setting [6]), the “effect of treatment on DHA level of red blood cells” value is reported as “rise in the DHA level of red blood cells”. In addition, the “DHA plasma level, mean” value was determined as 22.1 µg/mL in series [5] (2 g/D oral, D 7); 23.7 µg/mL in series [5] (2 g/D oral, D 14); 27.9 µg/mL in series [5] (2 g/D oral, D 21); 32.6 µg/mL in series [5] (2 g/D oral, D 28); 3.8 µg/mL in series [5] (setting [7]). Moreover, in series [5] (setting [6]), the “effect of treatment on plasma DHA” value is reported as “increase in plasma DHA”.

The values are drawn from patent US20150306056A1, “USE OF A DHA ESTER FOR PROPHYLACTIC AND/OR CURATIVE TREATMENT OF DREPANOCYTOSIS” (PIERRE FABRE MEDICAMENT, priority 2012, published 2015).
